Experimental data taken from patent US20180319865A1, “Identification of Novel Small Molecule Beta2 Integrin Agonists” (Rush University Medical Center, priority 2016, published 2018).
Where two headings read alike, the source gives them in different places.

Tests used:
Type in all cases: cell-based
[1] = biological target: T1, mutant integrin CD11bE320A/CD18 (Homo sapiens, UniProt P11215, E336A); assay: HTS cell adhesion assay, K562 E320A cells on immobilized fibrinogen; conditions: five point dose-response
T1 construct: expressed in transfected cells; host or cells: K562 (ATCC)
Summary of the method: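 K562 cells expressing the indicated CD11b/CD18 integrin were added to wells coated with 15 μg/mL fibrinogen and incubated with compound for 30 min at 37 °C in Ca2+/Mg2+ buffer. Non-adherent cells were removed by plate inversion. Adherent cells were fixed, stained with DAPI and counted by high-content imaging, scaled from 0% (1 mM Ca2+/Mg2+) to 100% (Mn2+ activation).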

integrin CD11c/CD18 = biological target: T2, integrin CD11c/CD18 (Homo sapiens, UniProt P20702); assay: HTS cell adhesion assay, K562 CD11c/CD18 cells on immobilized fibrinogen
T2 construct: expressed in transfected cells; host or cells: K562 (ATCC)
Method: (§1) K562 cells stably expressing CD11c/CD18 (K562 CD11c/CD18) were generated similarly. Mutant CD11bE320A has been described previously. K562 cells stably transfected with mutant integrin CD11bE320A/CD18 (K562 E320A) were generated according to literature protocols. All cell lines were maintained in Iscove's Modified Dulbecco's Medium (IMDM) supplemented with 10% heat-inactivated fetal bovine serum, 50 IU/mL penicillin and streptomycin and 0.5 mg/mL G418.
(§2) Cell adhesion assays with immobilized ligands were performed using the general protocol previously described and as illustrated in FIG. 1 [33]. Assays with all different K562 cell lines (K562, K562 CD11b/CD18, K562 CD11c/CD18 and K562 E320A) were performed in an identical fashion. Briefly, 384-well microplates (Corning 3700) were coated with 15 μg/mL fibrinogen (Fg) ligand in PBS^++ overnight at 4° C. At the same time, anti-CD18 (IB4) mAb was also coated. Subsequently, the coated wells were washed with 1% nonfat milk in TBS at room temperature for 1 hour. Next, the wells were washed 3 times with TBS, and the coated microplates were used in the HTS assays.
(§3) K562 CD11b/CD18, K562 CD11bE320A/CD18 and K562 CD11c/CD18 cells were washed with TBS, and cells were transferred to the Fg-coated wells of microplates in the assay buffer (Ca^2+ and Mg^2+ for physiological condition, Mn^2+ as the Positive control). A 1 μL aliquot of the compounds were transferred to each washed well with multichannel pipet from the 384-well plates.
(§4) The assay plates were incubated at 37° C. in the presence of small-molecule compounds for 30 min. To dislodge the non-adherent cell, the assay plates were gently inverted and kept in inverted position for 20 min at room temperature.
(§5) The cells were fixed with 37% formaldehyde in a small volume and the plates were kept inverted for 1 h. Upon the fixation, the solutions in the well were discarded. Next, the cells were fluorescently labeled with DAPI (0.5 μM final in TBS with 0.1% Triton X-100) and the quantitated with “Opera High Content Screening System” (Perkin Elmer).
Cell-adhesion under positive and negative control conditions was used to define the activity scale; signal corresponding to the number of non-small molecule treated cells adherent in activating buffer condition (in the presence of Mn^2+ ions as agonist, PC) was considered maximum (100% binding) and the signal corresponding to the number of non-small molecule treated cells adherent in basal buffer condition (in the presence of 1 mM each of Ca^2+ and Mg^2+, NC) was considered minimum (0% binding). […]
The compounds were diluted in DMSO by the final concentration 10 μM, 5 μM, 2.5 μM, 1.25 μM and 0.625 μM and stocked as sealed in 384-well plates at −80° C.

[2] = biological target: T3, wild-type integrin CD11b/CD18 (Homo sapiens, UniProt P11215); assay: HTS cell adhesion assay, K562 CD11b/CD18 cells on immobilized fibrinogen
T3 construct: expressed in transfected cells; host or cells: K562 (ATCC)
Method: as §1, with “Mutant CD11bE320A has been described previously.” left out
as §2, §3, §4, §5
Cell-adhesion under positive and negative control conditions was used to define the activity scale; signal corresponding to the number of non-small molecule treated cells adherent in activating buffer condition (in the presence of Mn^2+ ions as agonist, PC) was considered maximum (100% binding) and the signal corresponding to the number of non-small molecule treated cells adherent in basal buffer condition (in the presence of 1 mM each of Ca^2+ and Mg^2+, NC) was considered minimum (0% binding).

[3] = Table 3, adhesion to fibrinogen
[4] = Table 4, K562 CD11c/CD18 cells, adhesion to fibrinogen, dose-response
[5] = Table 3, adhesion to fibrinogen, 5-point dose-response
[6] = Table 4, adhesion to fibrinogen, dose-response
[7] = Table 4, adhesion to fibrinogen
[8] = Table 3, K562 CD11c/CD18 cells, adhesion to fibrinogen, dose-response

Structure (SMILES) | EC50 [1, 3] [µM] | EC50 (integrin CD11c/CD18) [µM] | other results
O=C(CN1C(=O)c2ccccc2C1=O)Nc1ccc(-c2nc3ccccc3o2)cc1 [Compound 1255636] | 0.678 | – | EC50 CD11c/CD18 (integrin CD11c/CD18; [4]): N/A Very Low; EC50 CD11b/CD18 [2, 5]: Very Low; EC50 CD11b/CD18 [2, 6]: N/A Very Low
O=C(O)CCN1C(=O)/C(=C\c2ccc(-c3nc4ccccc4s3)o2)SC1=S [Compound 2030970] | – | – | EC50 E320A [1, 3]: Very Low; EC50 CD11c/CD18 (integrin CD11c/CD18; [4]): N/A Very Low; EC50 CD11b/CD18 [2, 5]: Very Low; EC50 CD11b/CD18 [2, 6]: N/A Very Low
CCOc1ccc(/C=c2\sc3nc(-c4ccco4)nn3c2=O)cc1OCC [Compound 2144321] | 6.49 | 5.07 | –
Cc1ccc2nc(-c3ccc(NC(=O)CCS(=O)(=O)c4ccccc4)cc3)sc2c1 [Compound 12005977] | 6.72 | 5.05 | –
COc1ccc(/C=C2/SC(=O)N(CC(=O)Nc3cc(C)on3)C2=O)cc1OC [Compound 1554642] | 7.9 | 5.26 | –
C/C(=N/NC(=O)c1cc2ccccc2cc1O)C1C(=O)c2ccccc2C1=O [Compound 5431927] | 2.35 | 2.01 | –
N#Cc1sc2nc(-c3ccccc3)cc(-c3ccco3)c2c1N [Compound 629074] | 5.16 | 2.36 | –
Nc1c(C(=O)Nc2nccs2)sc2nc(-c3cccs3)cc(C(F)(F)F)c12 [Compound 2252798] | 4.1 | 4.06 | –
O=C(ONc1ccc(N=NC(=O)c2ccccc2O)cc1)c1ccccc1 [Compound 4483668] | 5.42 | 4.64 | –
Cc1ccc(-n2nnnc2SCC(=O)Nc2ccc3c(c2)COC3=O)cc1C [Compound 1227337] | 4.19 | 3.32 | –
CC(C)c1nc2sc3c(SCC(=O)NCc4ccco4)ncnc3c2c2c1CCC2 [Compound 664182] | 4.24 | 3.78 | –
O=C(Oc1ccc2c(=O)c(Oc3ccc4ccccc4c3)coc2c1)c1cncc(Br)c1 [Compound 1045434] | 9.84 | – | EC50 CD11c/CD18 (integrin CD11c/CD18; [8]): Infinite
CC(=O)c1ccc(NC(=O)c2ccc3nc(-c4ccco4)c(-c4ccco4)nc3c2)cc1 [Compound 1331726] | 2.46 | 2.64 | –
Cn1c(C(=O)NCCN2CCc3ccccc3C2)cc2c(=O)n(C)c3ccccc3c21 [Compound 5309909] | 259 | – | EC50 CD11c/CD18 (integrin CD11c/CD18; [8]): Infinite
CCn1c(=NC(=O)c2ccc(N3C(=O)CCC3=O)cc2)sc2c(OC)ccc(OC)c21 [Compound 2150886] | 5.05 | 2.13 | –
Cc1ccc(-c2ccc(/C=C(\C#N)C(=O)Nc3cc(C)nn3-c3ccccc3)o2)cc1 [Compound 1554430] | 4.68 | 1.3 | –
CC1CCN(S(=O)(=O)c2ccc(NC(=O)Cn3nnc(-c4ccccc4)n3)cc2)CC1 [Compound 652267] | 6 | 5.01 | –
CS(=O)(=O)c1ccc2c(c1)SC1=NC(=O)/C(=C/c3ccco3)C(=N)N12 [Compound 1951731] | 3.65 | 4.21 | –
CCCCCCCC(=O)Nc1ccc(C(=O)N/N=C/c2cccc([N+](=O)[O-])c2)cc1 [Compound 9774264] | 4.16 | 1.03 | –
O=C(O)CCN1C(=O)/C(=C/c2ccc(-c3nc4ccccc4s3)o2)SC1=S [Compound 2030972] | 6.69 | – | EC50 [1, 7]: 6.69 µM; EC50 CD11c/CD18 (integrin CD11c/CD18; [8]): Very Low; EC50 CD11c/CD18 (integrin CD11c/CD18; [4]): N/A Very Low; EC50 CD11b/CD18 [2, 5]: Very Low; EC50 CD11b/CD18 [2, 6]: N/A Very Low
COCCCNC(=O)c1c(N)n(/N=C/c2cccs2)c2nc3ccccc3nc12 [Compound 6880740] | 4.99 | 2.6 | –
O=C(Nc1ccc2oc(-c3ccccc3F)nc2c1)c1cncc(Br)c1 [Compound 1295289] | 3.62 | 2.67 | –
COc1ccccc1NC(=O)c1sc2ncn(Cc3ccc(C)cc3)c(=O)c2c1C [Compound 1078286] | 6.92 | 2.5 | –
CCOC(=O)c1c(-n2c(C)cc(C=C3C(=O)NC(=S)NC3=O)c2C)sc2c1CCCC2 [Compound 1494229] | 6.53 | – | EC50 [1, 7]: 6.53 µM; EC50 (integrin CD11c/CD18; Table 4, K562 CD11c/CD18 cells, adhesion to fibrinogen, dose-response, read-out: EC50 CD11c/CD18): 6.72 µM
O=c1c(-c2nc3ccccc3o2)c2oc3ccccc3n2c2ccccc12 [Compound 2321209] | 5.3 | 2.63 | –
COc1cc(/C=C2\SC(N)=NC2=O)ccc1OCC(=O)Nc1ccc(C)cc1 [Compound 1308620] | 3.3 | 6.27 | –
CCc1nnc(NC(=O)c2sc3nc4c(cc3c2N)CCCCCC4)s1 [Compound 5143923] | 5.31 | 3.01 | –

More lines, in order of falling EC50 [1, 3], values ahead:

EC50 [1, 3] [µM] | EC50 (integrin CD11c/CD18) [µM] | Structure (SMILES) | other results
21.9 | – | N#C/C(=C\c1ccc(OCc2ccccc2)cc1)C(=O)Nc1nc2c(s1)CCN(Cc1ccccc1)C2 [Compound 2327777] | EC50 CD11c/CD18 (integrin CD11c/CD18; [8]): Infinite
8.11 | 2.72 | Cc1ccc2sc(-c3ccc(NC(=O)c4cc(-n5cnnc5)ccc4Cl)cc3)nc2c1 [Compound 1017701] | –
6.29 | 5.28 | C=CCn1c(SCC(=O)c2ccc(CNC(C)=O)o2)nc2scc(C3CC3)c2c1=O [Compound 2569132] | –
6.23 | 5.84 | COc1cc(NC(=O)Cn2c(=O)n(-c3cccc(C)c3)c(=O)c3c(C)c(C)sc32)cc(OC)c1 [Compound 12004750] | –
5.55 | 2.71 | CCOC(=O)N1CCC(NC(=O)c2ccc3c(c2)sc2nc(-c4ccc(OC)cc4)cn23)CC1 [Compound 3235854] | –
5.27 | 4.72 | CCCCn1c(SCC(=O)c2ccc(OC)cc2OC)nc2cc(S(N)(=O)=O)ccc21 [Compound 2997788] | –
5.17 | 1.99 | CCOC(=O)Cc1csc(NC(=O)c2sc3nc4c(C)cc(C)cc4cc3c2N)n1 [Compound 3207334] | –
4.92 | 2.63 | CSc1nc(N(CCO)CCO)c2sc3nc(-c4ccco4)c4c(c3c2n1)CCC4 [Compound 665142] | –
4.43 | 1.87 | O=C(Nc1nccs1)c1cccc(N2C(=O)c3cccc4c([N+](=O)[O-])ccc(c34)C2=O)c1 [Compound 2254616] | –
4 | 2.77 | COc1ccc2nc(SCC(=O)Nc3ccc4sc(C)nc4c3)c(C#N)cc2c1 [Compound 1164441] | –
3.71 | – | C=CCn1c(SCC(=O)c2[nH]c(C)c(C(=O)OC)c2C)nc2scc(-c3ccc(OC)c(OC)c3)c2c1=O [Compound 1745635] | EC50 [1, 7]: 3.71 µM; EC50 CD11c/CD18 (integrin CD11c/CD18; [8]): Very low; EC50 CD11c/CD18 (integrin CD11c/CD18; [4]): N/A Very Low; EC50 CD11b/CD18 [2, 6]: N/A Very Low
3.07 | 2.16 | N=C1/C(=C\c2ccc(-c3cccc(Cl)c3)o2)C(=O)N=C2SC=C(c3ccccc3)N12 [Compound 1984877] | –
1.6 | 7.21 | O=C(CCN1C(=O)c2ccccc2C1=O)Nc1ccc(-c2nc3ccccc3o2)cc1 [Compound 1262031] | –
1.26 | – | O=C(Cn1c(=O)oc2cc(S(=O)(=O)N3CCCC3)ccc21)NC1CCCc2ccccc21 (stereo not shown) [Compound 5308150] | EC50 [1, 7]: 1.26 µM; EC50 CD11c/CD18 (integrin CD11c/CD18; [8]): Very Low; EC50 CD11c/CD18 (integrin CD11c/CD18; [4]): N/A Very Low; EC50 CD11b/CD18 [2, 6]: N/A Very Low
